Experiments:
Assay in all cases: relative viability (nuclei count vs DMSO), 5 days (fraction); higher = more cells survive
201T = test system: 201T
In short: (§1)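 Lung cancer cell lines in 1536-well plates got either a single drug or a fixed anchor-drug dose together with five library-drug doses (not always all listed) in √10 steps, by pin tool, on the day after seeding. Nuclei were counted after 5 days, and relative viability is the treated-to-vehicle ratio of nuclei counts. Values are medians of duplicate plates.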

BEN = test system: BEN
In short: as §1

COR-L 105 = test system: COR-L 105
In short: as §1

EKVX = test system: EKVX
In short: as §1

EPLC-272H = test system: EPLC-272H
In short: as §1

H3255 = test system: H3255
In short: as §1

HCC-44 = test system: HCC-44
In short: as §1

HCC-827 = test system: HCC-827
In short: as §1

HOP-62 = test system: HOP-62
In short: as §1

LCLC-97TM1 = test system: LCLC-97TM1
In short: as §1

LOU-NH91 = test system: LOU-NH91
In short: as §1

LU99A = test system: LU99A
In short: as §1

NCI-H1395 = test system: NCI-H1395
In short: as §1

NCI-H1437 = test system: NCI-H1437
In short: as §1

NCI-H1666 = test system: NCI-H1666
In short: as §1

NCI-H1975 = test system: NCI-H1975
In short: as §1

NCI-H2085 = test system: NCI-H2085
In short: as §1

NCI-H2087 = test system: NCI-H2087
In short: as §1

NCI-H2126 = test system: NCI-H2126
In short: as §1

NCI-H358 = test system: NCI-H358
In short: as §1

NCI-H647 = test system: NCI-H647
In short: as §1

PC-3 [JPC-3] = test system: PC-3 [JPC-3]
In short: as §1

SW 1573 = test system: SW 1573
In short: as §1

CC(C)Oc1cc(Nc2nc(N[C@@H](C)c3ccc(F)cn3)ncc2Cl)n[nH]1 [AZ23] + CS(=O)(=O)N1CCN(Cc2cc3nc(-c4cccc5[nH]ncc45)nc(N4CCOCC4)c3s2)CC1 [Pictilisib] (partner 1 µM)
relative viability (201T; first compound 0.01 µM): 0.685 | relative viability (201T; first compound 0.03162 µM): 0.683 | relative viability (201T; first compound 0.3162 µM): 0.69 | relative viability (BEN; first compound 0.01 µM): 0.527 | relative viability (BEN; first compound 0.03162 µM): 0.639 | relative viability (BEN; first compound 0.3162 µM): 0.653 | relative viability (COR-L 105; first compound 0.01 µM): 0.407 | relative viability (COR-L 105; first compound 0.03162 µM): 0.417 | relative viability (COR-L 105; first compound 0.3162 µM): 0.383 | relative viability (EKVX; first compound 0.01 µM): 0.481 | relative viability (EKVX; first compound 0.03162 µM): 0.466 | relative viability (EKVX; first compound 0.3162 µM): 0.444 | relative viability (EPLC-272H; first compound 0.01 µM): 0.258 | relative viability (EPLC-272H; first compound 0.03162 µM): 0.349 | relative viability (H3255; first compound 0.01 µM): 0.484 | relative viability (H3255; first compound 0.03162 µM): 0.519 | relative viability (H3255; first compound 0.3162 µM): 0.494 | relative viability (HCC-44; first compound 0.01 µM): 0.727 | relative viability (HCC-44; first compound 0.03162 µM): 0.629 | relative viability (HCC-44; first compound 0.3162 µM): 0.572 | relative viability (HCC-827; first compound 0.01 µM): 1.11 | relative viability (HCC-827; first compound 0.03162 µM): 0.978 | relative viability (HCC-827; first compound 0.3162 µM): 1.11 | relative viability (HOP-62; first compound 0.01 µM): 0.635 | relative viability (HOP-62; first compound 0.03162 µM): 1.11 | relative viability (HOP-62; first compound 0.3162 µM): 0.874 | relative viability (LCLC-97TM1; first compound 0.01 µM): 0.134 | relative viability (LCLC-97TM1; first compound 0.03162 µM): 0.225 | relative viability (LCLC-97TM1; first compound 0.3162 µM): 0.157 | relative viability (LOU-NH91; first compound 0.01 µM): 0.483 | relative viability (LOU-NH91; first compound 0.03162 µM): 0.525 | relative viability (LOU-NH91; first compound 0.3162 µM): 0.528 | relative viability (LU99A; first compound 0.01 µM): 0.292 | relative viability (LU99A; first compound 0.03162 µM): 0.386 | relative viability (LU99A; first compound 0.3162 µM): 0.294 | relative viability (NCI-H1395; first compound 0.03162 µM): 0.666 | relative viability (NCI-H1395; first compound 0.3162 µM): 0.577 | relative viability (NCI-H1437; first compound 0.01 µM): 0.374 | relative viability (NCI-H1437; first compound 0.03162 µM): 0.389 | relative viability (NCI-H1437; first compound 0.3162 µM): 0.46 | relative viability (NCI-H1666; first compound 0.01 µM): 0.51 | relative viability (NCI-H1666; first compound 0.03162 µM): 0.559 | relative viability (NCI-H1666; first compound 0.3162 µM): 0.417 | relative viability (NCI-H1975; first compound 0.01 µM): 0.307 | relative viability (NCI-H1975; first compound 0.03162 µM): 0.327 | relative viability (NCI-H1975; first compound 0.3162 µM): 0.298 | relative viability (NCI-H2085; first compound 0.01 µM): 0.556 | relative viability (NCI-H2085; first compound 0.03162 µM): 0.563 | relative viability (NCI-H2085; first compound 0.3162 µM): 0.446 | relative viability (NCI-H2087; first compound 0.01 µM): 0.867 | relative viability (NCI-H2087; first compound 0.03162 µM): 1.06 | relative viability (NCI-H2087; first compound 0.3162 µM): 0.964 | relative viability (NCI-H2126; first compound 0.01 µM): 0.485 | relative viability (NCI-H2126; first compound 0.03162 µM): 0.514 | relative viability (NCI-H2126; first compound 0.3162 µM): 0.452 | relative viability (NCI-H358; first compound 0.01 µM): 0.404 | relative viability (NCI-H358; first compound 0.03162 µM): 0.329 | relative viability (NCI-H358; first compound 0.3162 µM): 0.324 | relative viability (NCI-H647; first compound 0.03162 µM): 0.5 | relative viability (NCI-H647; first compound 0.3162 µM): 0.447 | relative viability (PC-3 [JPC-3]; first compound 0.01 µM): 0.807 | relative viability (PC-3 [JPC-3]; first compound 0.03162 µM): 0.833 | relative viability (PC-3 [JPC-3]; first compound 0.3162 µM): 0.807 | relative viability (SW 1573; first compound 0.01 µM): 0.674 | relative viability (SW 1573; first compound 0.03162 µM): 0.606 | relative viability (SW 1573; first compound 0.3162 µM): 0.455

CC(C)Oc1cc(Nc2nc(N[C@@H](C)c3ccc(F)cn3)ncc2Cl)n[nH]1 [AZ23] + C[C@]1(O)C[C@@H](c2nc(-c3ccc4ccc(-c5ccccc5)nc4c3)c3c(N)nccn32)C1 [Linsitinib] (partner 1 µM)
relative viability (201T; first compound 0.01 µM): 1.01 | relative viability (201T; first compound 0.03162 µM): 1.11 | relative viability (201T; first compound 0.3162 µM): 0.996 | relative viability (BEN; first compound 0.01 µM): 1 | relative viability (BEN; first compound 0.03162 µM): 0.966 | relative viability (BEN; first compound 0.3162 µM): 0.977 | relative viability (COR-L 105; first compound 0.01 µM): 0.664 | relative viability (COR-L 105; first compound 0.03162 µM): 1.14 | relative viability (COR-L 105; first compound 0.3162 µM): 0.808 | relative viability (EKVX; first compound 0.01 µM): 1.01 | relative viability (EKVX; first compound 0.03162 µM): 1.22 | relative viability (EKVX; first compound 0.3162 µM): 0.969 | relative viability (EPLC-272H; first compound 0.01 µM): 1.26 | relative viability (EPLC-272H; first compound 0.03162 µM): 1.22 | relative viability (H3255; first compound 0.01 µM): 1.03 | relative viability (H3255; first compound 0.03162 µM): 1.08 | relative viability (H3255; first compound 0.3162 µM): 0.985 | relative viability (HCC-44; first compound 0.01 µM): 0.684 | relative viability (HCC-44; first compound 0.03162 µM): 0.74 | relative viability (HCC-44; first compound 0.3162 µM): 0.632 | relative viability (HCC-827; first compound 0.01 µM): 1 | relative viability (HCC-827; first compound 0.03162 µM): 1.04 | relative viability (HCC-827; first compound 0.3162 µM): 0.93 | relative viability (HOP-62; first compound 0.01 µM): 1.09 | relative viability (HOP-62; first compound 0.03162 µM): 0.992 | relative viability (HOP-62; first compound 0.3162 µM): 0.95 | relative viability (LCLC-97TM1; first compound 0.01 µM): 0.185 | relative viability (LCLC-97TM1; first compound 0.03162 µM): 0.17 | relative viability (LCLC-97TM1; first compound 0.3162 µM): 0.168 | relative viability (LOU-NH91; first compound 0.01 µM): 0.85 | relative viability (LOU-NH91; first compound 0.03162 µM): 0.966 | relative viability (LOU-NH91; first compound 0.3162 µM): 0.917 | relative viability (LU99A; first compound 0.01 µM): 0.534 | relative viability (LU99A; first compound 0.03162 µM): 0.579 | relative viability (LU99A; first compound 0.3162 µM): 0.593 | relative viability (NCI-H1395; first compound 0.03162 µM): 1.09 | relative viability (NCI-H1395; first compound 0.3162 µM): 0.975 | relative viability (NCI-H1437; first compound 0.01 µM): 1.07 | relative viability (NCI-H1437; first compound 0.03162 µM): 1.18 | relative viability (NCI-H1437; first compound 0.3162 µM): 1.28 | relative viability (NCI-H1666; first compound 0.01 µM): 0.719 | relative viability (NCI-H1666; first compound 0.03162 µM): 0.943 | relative viability (NCI-H1666; first compound 0.3162 µM): 0.775 | relative viability (NCI-H1975; first compound 0.01 µM): 1.13 | relative viability (NCI-H1975; first compound 0.03162 µM): 1.06 | relative viability (NCI-H1975; first compound 0.3162 µM): 0.972 | relative viability (NCI-H2085; first compound 0.01 µM): 1.03 | relative viability (NCI-H2085; first compound 0.03162 µM): 1.02 | relative viability (NCI-H2085; first compound 0.3162 µM): 0.761 | relative viability (NCI-H2087; first compound 0.01 µM): 1.34 | relative viability (NCI-H2087; first compound 0.03162 µM): 1.06 | relative viability (NCI-H2087; first compound 0.3162 µM): 0.955 | relative viability (NCI-H2126; first compound 0.01 µM): 0.737 | relative viability (NCI-H2126; first compound 0.03162 µM): 0.739 | relative viability (NCI-H2126; first compound 0.3162 µM): 0.684 | relative viability (NCI-H358; first compound 0.01 µM): 0.742 | relative viability (NCI-H358; first compound 0.03162 µM): 0.771 | relative viability (NCI-H358; first compound 0.3162 µM): 0.793 | relative viability (NCI-H647; first compound 0.01 µM): 1.48 | relative viability (NCI-H647; first compound 0.03162 µM): 1.17 | relative viability (NCI-H647; first compound 0.3162 µM): 1.26 | relative viability (PC-3 [JPC-3]; first compound 0.01 µM): 1.03 | relative viability (PC-3 [JPC-3]; first compound 0.03162 µM): 1.04 | relative viability (PC-3 [JPC-3]; first compound 0.3162 µM): 0.973 | relative viability (SW 1573; first compound 0.01 µM): 0.786 | relative viability (SW 1573; first compound 0.03162 µM): 0.937 | relative viability (SW 1573; first compound 0.3162 µM): 0.691
